Key:
Female BALB/c mice = experiment: Firefly luciferase expression (total flux, IVIS imaging) in mice after injection of mRNA-loaded LNPs; type: in vivo
Description: For in vivo administration, mRNA comprising in the 5' to 3' direction a sequence encoding for luciferase of SEQ ID NO:1, was encapsulated into LNPs following the procedure described in Hassett, K. J. et al., "Optimization of Lipid Nanoparticles for Intramuscular Administration of mRNA Vaccines", 2019, Mol. Ther. Nucleic Acid, vol. 15, pp. 1-11. Briefly, the purified mRNAs were first diluted in sodium citrate buffer at pH=4 at a final concentration of 266 µg/ml. Separately, a mixture of the ionizable lipid of the invention:DSPC (Merk 850365P):cholesterol (Sigma C3045):DMG-PEG2000 (Cayman 33945-1) were dissolved into ethanol at the respective molar percentages of 50:10:38.5:1.5, and with a lipid-nitrogen-to-phosphate ratio (N:P) ratio of 5,5:1.
The mRNA aqueous solution was then carefully added to the ethanol solution, and the resulted solution was homogenized by pipetting up and down for 4-5 times. The resulting LNPs were immediately diluted 1:1 with Tris buffer and dialyzed overnight against Tris buffer containing 15% sucrose. The resulting LNP solution was then collected, and the encapsulated mRNA was assessed by Quant-IT® Ribogreen (Invitrogen R11490) following the manufacturer's instructions.
Female BALB/c mice (Charles River Laboratories), 8-10-week-old, weighting 18-23 g, were acclimatized to new conditions upon arrival to experimental facilities for 3-7 days. Housing conditions were room temperature 20-24 °C, humidity 50-70 %, and light intensity 60 lux with a light-dark cycle of 12 hours.
For Firefly Luciferase activity measurement in mice, LNPs produced as indicated above (ionizable lipid:helper lipid: sterol:PEG-modified lipid → 50:10:38.5:1.5) and containing 5 µg of the indicated mRNA in 50 µl final volume, were injected intramuscularly.
From 4 to 72 hours after RNA-LPN inoculation mice were anaesthetized by inhalation with 4% of isoflurane using a vaporizer. The maintenance of the anaesthesia was performed at 1.5% of isoflurane. Then, D-luciferin (Quimigen, 12507) was injected intraperitoneally at 150 mg/kg, normally ~200 µL of the stock at 15 mg/mL in PBS for a 20 g mouse. Luciferase images were acquired 10 minutes after luciferin inoculation using the IVIS Lumina XRMS Imaging System following manufacturer's instructions.

[1] = RNA encapsulation efficiency of LNPs by Quant-IT Ribogreen; type: physicochemical; conditions: for Encaps. efficiency (%): LNPs with luciferase mRNA, ionizable lipid:non-cationic lipid:sterol:PEG-modified lipid 50:10:38.5:1.5, percentage of RNA entrapped in the LNP; for Encaps. efficiency: Table 8, LNP 50:10:38.5:1.5, luciferase mRNA
Method in brief: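 Ribogreen dye assay per manufacturer quantified encapsulated mRNA. Particles were made by adding mRNA in water to the ethanol phase, then 1:1 Tris dilution and overnight dialysis into Tris/15% sucrose; final mRNA set to 100 µg/ml.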

[2] = Size distribution, polydispersity and Z-potential of LNPs by dynamic light scattering (Malvern Zetasizer); type: physicochemical; conditions: LNPs, standard formulation 50:10:38.5:1.5; DLS
Description: The LNP solution was then adjusted to a final concentration of mRNA of 100 µg/ml. Size distribution, polydispersity and Z-potential were measured by dynamic light scattering (DLS) using Malvern Zetasizer Advance Lab Blue Label. RNA encapsulation was assessed by Quant-IT® Ribogreen following the manufacturer's instructions.

[3] = Apparent pKa of LNPs comprising the ionizable lipid (Table 6); conditions: standard formulation 50:10:38.5:1.5
[4] = Table 8, mice, intramuscular, 5 µg luciferase mRNA in 50 µl, LNP 50:10:38.5:1.5
[5] = Table 9, comparative disulfide compounds, tested in vivo

Encaps. efficiency (%) [1] [%]	Encaps. efficiency [1] [%]	P.D.I. [2]	Particle size/ Ø (nm) [2] [nm]	Z Potential (± D.E.) [mV] [2] [mV]	Apparent pKa [3]	SMILES	Total Flux (Female BALB/c mice; [4]) [p·s^-1]	transfection (luminescence) in vivo (Female BALB/c mice; Figure 2, intramuscular injection, LNP 50:10:38.5:1.5 encapsulating luciferase mRNA)	Total Flux (Female BALB/c mice; [5]) [p·s^-1]	Total Flux (Female BALB/c mice; Table 7A-C, mice, intramuscular, 5 µg luciferase mRNA in 50 µl, LNP ionizable lipid:helper lipid:sterol:PEG-modified lipid 50:10:38.5:1.5)
43.65	43.65	0.11	140.3	-8.47	–	CCCCCCCCCCCCCOC(=O)CCSCC(CC(=O)NCCCN1CCOCC1)C(=O)OC(CCCCCCCC)CCCCCCCC (stereo not shown) [VC-LC-0540]	1.3E+08	–	–	–
33.79	33.79	0.11	143.8	-10.53	–	CCCCCCCCCCCCCCCCCCOC(=O)CCSCCC(NC(=O)C(CCCCCC)CCCCCCCC)C(=O)NCCCn1ccnc1 (stereo not shown) [VC-LC-0262]	7.5E+07	–	–	–
–	–	–	–	–	–	CCCCCCCCC(CCCCCC)C(=O)NC(CCSSCCC(NC(=O)C(CCCCCC)CCCCCCCC)C(=O)NCCN1CCN(C)CC1)C(=O)NCCN1CCN(C)CC1 (stereo not shown) [VC-LC-0236]	–	no transfection	5.20E+05	–
–	–	–	–	–	–	CCCCCCC#CCCOC(=O)CCSCC(CC(=O)NCCCN1CCOCC1)C(=O)OC(CCCCCCCC)CCCCCCCC (stereo not shown)	–	–	–	Total flux: 1,4E+08 p·s^-1
–	–	–	–	–	–	CCCCCCCCC(CCCCCC)C(=O)NC(CCSSCCC(NC(=O)C(CCCCCC)CCCCCCCC)C(=O)NCCCN(CCO)CCO)C(=O)NCCCN(CCO)CCO (stereo not shown) [VC-LC-0237]	–	–	3.16E+05	–
97.61	–	0.15	144.9	-2.73	7.39	CCCCCCCCCCC(CCCCCCCC)C(=O)NC(CCSCCC(=O)OCC(CC)CCCC)C(=O)NCC1CCN(C)CC1 (stereo not shown) [VC-LC-0510]	–	–	–	–
57.64	–	0.15	193.3	-13.45	6.09	CCCCCCCCCCCCCCOC(=O)CCSCC(CC(=O)NCCCn1ccnc1)C(=O)OC(CCCCCCCC)CCCCCCCC (stereo not shown) [VC-LC-0299]	–	–	–	–
47.36	–	–	–	-17.58	5.77	CCCCCCCCOC(=O)CCSCCC(NC(=O)C(CCCCCC)CCCCCCCC)C(=O)NCCCN1CCOCC1 (stereo not shown) [VC-LC-0176]	–	–	–	–
89.18	–	0.16	122.6	-13.24	6.33	CCCCCCCCCCCCOC(=O)CCSCCC(C(=O)NCCCn1ccnc1)C(=O)OC(CCCCCCCC)CCCCCCCC (stereo not shown) [VC-LC-0366]	–	–	–	–
99.46	–	0.15	152.3	1.06	7.47	CCCCCCCCC(CCCCCC)C(=O)NC(CCSCCC(=O)OCCCCCC(C)C)C(=O)NCC1CCN(C)CC1 (stereo not shown) [VC-LC-0498]	–	–	–	–
98.15	–	0.16	150.9	0.83	7.47	CCCCCCCCC(CCCCCC)C(=O)NC(CCSCCC(=O)OCCCCCCCC(C)C)C(=O)NCC1CCN(C)CC1 (stereo not shown) [VC-LC-0492]	–	–	–	–
46.96	–	0.14	155.6	-12.49	6.48	CCCCCCCC#CCOC(=O)CCSCCC(NC(=O)C(CCCCCC)CCCCCCCC)C(=O)NC1CCN(C)CC1 (stereo not shown) [VC-LC-0429]	–	–	–	–
98.97	–	0.14	155.6	4.06	6.85	CCCCCCCCCCCCOC(=O)CCSCCC(NC(=O)C(CCCCCCCC)CCCCCCCCCC)C(=O)NCC1CCN(C)CC1 (stereo not shown) [VC-LC-0511]	–	–	–	–
62.80	–	0.14	146.3	-5.38	6.64	CCCCCCCC/C=C\CCCCCCCC(=O)NC(CCSCC(=O)OCCCCCCCCCCCCC)C(=O)NCCCN1CCOCC1 (stereo not shown) [VC-LC-0338]	–	–	–	–
97.70	–	0.17	149.1	3.90	6.67	CCCCCCCCCCC(CCCCCCCC)C(=O)NC(CCSCCC(=O)OCCCCCC)C(=O)NCC1CCN(C)CC1 (stereo not shown) [VC-LC-0518]	–	–	–	–
45.62	–	0.09	184.2	-12.78	5.70	CCCCCCCCC(CCCCCCCC)OC(=O)C(CSCCC(=O)OCCCCCC)CC(=O)NCCCn1ccnc1 (stereo not shown) [VC-LC-0306]	–	–	–	–
95.26	–	0.15	181.3	7.19	6.61	CCCCCCCC/C=C\CCCCCCCCOC(=O)CCSCCC(NC(=O)CCCCCCCCCCCCCCCCC)C(=O)NC1CCN(C)CC1 (stereo not shown) [VC-LC-0438]	–	–	–	–
52.31	–	0.13	135	-4.72	6.59	CCCCCCCCC(CCCCCC)C(=O)NC(CCSCCC(=O)OCCCCCCCC(C)C)C(=O)NCCN(CC)CC (stereo not shown) [VC-LC-0475]	–	–	–	–
29.52	–	0.14	173	-10.85	6.18	CCCCCCCCC(CCCCCC)C(=O)NC(CCSCCC(=O)OCCCCCC)C(=O)NCCCn1ccnc1 (stereo not shown) [VC-LC-0268]	–	–	–	–
73.32	–	0.2	154.5	-6.33	6.37	CCCCCCCCCCCCCCCCOC(=O)CCSCCC(NC(=O)C(CCCCCC)CCCCCCCC)C(=O)NCCN(CC)CC (stereo not shown) [VC-LC-0480]	–	–	–	–
–	–	–	–	–	–	CCCCCCCCC(CCCCCC)C(=O)NC(CCSSCCC(NC(=O)C(CCCCCC)CCCCCCCC)C(=O)NCCCN(C)C)C(=O)NCCCN(C)C (stereo not shown) [VC-LC-0230]	–	–	4.47E+05	–
57.43	–	0.15	146.7	-9.55	6.65	CCCCCCCCCCCCOC(=O)CCSCCC(NC(=O)C(CCCCCC)CCCCCCCC)C(=O)NCCN(CC)CC (stereo not shown) [VC-LC-0477]	–	–	–	–
42.80	–	0.11	154.7	-6.83	6.39	CCCCCCCCC(CCCCCC)COC(=O)CCSCC(CC(=O)NCCCN1CCOCC1)C(=O)OC(CCCCCCCC)CCCCCCCC (stereo not shown) [VC-LC-0541]	–	–	–	–
66.27	–	0.21	153.2	-7.69	5.61	CCCCCCCCC(CCCCCC)COC(=O)CCSCCC(NC(=O)C(CCCCCC)CCCCCCCC)C(=O)NCCN(CC)CC (stereo not shown) [VC-LC-0474]	–	–	–	–
93.61	–	0.2	185.7	-0.83	7.18	CCCCCCCCC(CCCCCC)C(=O)NC(CCSCCC(=O)OCCCCCCC)C(=O)NCCCN(CCO)CCO (stereo not shown) [VC-LC-0207]	–	–	–	–
55.61	–	0.13	182.2	-15.06	5.69	CCCCCCCCCCCCCCOC(=O)CCSCCC(NC(=O)C(CCCCCCCC)CCCCCCCCCC)C(=O)NCCCN1CCOCC1 (stereo not shown) [VC-LC-0577]	–	–	–	–

SMILES	Encaps. efficiency (%) [1] [%]	Encaps. efficiency [1] [%]	P.D.I. [2]	Particle size/ Ø (nm) [2] [nm]	Z Potential (± D.E.) [mV] [2] [mV]	Apparent pKa [3]	Total Flux (Female BALB/c mice; [4]) [p·s^-1]	transfection (luminescence) in vivo (Female BALB/c mice; Figure 2, intramuscular injection, LNP 50:10:38.5:1.5 encapsulating luciferase mRNA)	Total Flux (Female BALB/c mice; [5]) [p·s^-1]	Total Flux (Female BALB/c mice; Table 7A-C, mice, intramuscular, 5 µg luciferase mRNA in 50 µl, LNP ionizable lipid:helper lipid:sterol:PEG-modified lipid 50:10:38.5:1.5)
CCCCCCCCCCCCCOC(=O)CCSCCC(C(=O)NCCCn1ccnc1)C(=O)OC(CCCCCCCC)CCCCCCCC (stereo not shown) [VC-LC-0362]	73.55	73.5	0.14	121.1	-13.94	–	3.31E+07	–	–	–

Reference: patent publication EP4371976B1, “IONIZABLE LIPIDS AND LIPID NANOPARTICLES CONTAINING THEREOF” (Certest Biotec, S.L., priority 2022, dated 2024)
